Laboratory results: US20130331347A1, “Treatment of Clostridium Difficile Infection in Patients Undergoing Antibiotic Therapy” (Optimer Pharmaceuticals, Inc., priority 2010, published 2013)

Tested on: Clostridium difficile infection (CDI)
Experiment: Concomitant antibiotics (CAs) during CDI treatment: PO fidaxomicin vs PO vancomycin, clinical outcome review
Assay type: in vivo, human
Settings: for Global Cure (clinical cure with no recurrence) / Clinical Cure / Recurrence: per protocol (PP); for Clinical Cure: 10 days of study drug; for Recurrence: CDI recurrence during 4-wk follow-up
Protocol: Administration of concomitant antibiotics (CAs) to subjects during the 10 days of study drug administration (PO Fidaxomicin (FDX 200 mg BID)) vs. (PO Vancomycin (Vanc 125 mg QID)) through 4-wk follow-up period was reviewed. End points were the effect of CAs on clinical cure, CDI recurrence during 4-wk follow-up, and global cure (clinical cure with no recurrence).

[1] = in those who received CAs, in words

Compound	Global Cure (clinical cure with no recurrence) (CA (concomitant antibiotics)) [%]	Clinical Cure (CA (concomitant antibiotics)) [%]	Recurrence (CA (concomitant antibiotics)) [%]	Global Cure (clinical cure with no recurrence) (No CA) [%]	Clinical Cure (No CA) [%]	Recurrence (No CA) [%]	CDI recurrences compared to Vanc [1]	global cures compared to Vanc [1]
CN[C@H](CC(C)C)C(=O)N[C@H]1C(=O)N[C@@H](CC(N)=O)C(=O)N[C@H]2C(=O)N[C@H]3C(=O)N[C@H](C(=O)N[C@H](C(=O)O)c4cc(O)cc(O)c4-c4cc3ccc4O)[C@H](O)c3ccc(c(Cl)c3)Oc3cc2cc(c3O[C@@H]2O[C@H](CO)[C@@H](O)[C@H](O)[C@H]2O[C@H]2C[C@](C)(N)[C@H](O)[C@H](C)O2)Oc2ccc(cc2Cl)[C@H]1O [Vanc, Vancomycin, reference compound]	50	77	40	72	94	18		
CCc1c(Cl)c(O)c(Cl)c(O)c1C(=O)O[C@H]1[C@H](O)[C@H](OC)[C@H](OC/C2=C\C=C\C[C@H](O)/C(C)=C/[C@H](CC)[C@@H](O[C@@H]3OC(C)(C)[C@@H](OC(=O)C(C)C)[C@H](O)[C@@H]3O)/C(C)=C/C(C)=C/C[C@@H]([C@@H](C)O)OC2=O)O[C@@H]1C [FDX, fidaxomicin]	72	87	23	79	93	11	lower	significantly improved
